Measurements from patent publication US4000310A, “Pharmaceutical compositions containing 6-methyl-3,4-diphenyl-3,4,5,6-tetrahydro-2-pyrone or derivatives thereof” (Union Chimique Continentale-U.C.C, priority 1974, dated 1976).

Tests used:
mouse [1] = assay: Motor activity in the mouse (actimeters with photoelectric cells); format: in vivo, mouse (male, Swiss NMRI stock); settings: for motor activity relative to the control group: 64 mg/kg oral
Description: (§1) All the experiments described below were carried out using male rats weighing from 170 to 220 g (Wistar Af stock) and male mice weighing from 18 to 23 g (Swiss NMRI stock).
Motor activity was determined using actimeters with photoelectric cells (Boissier and Simon, Arch. int. Pharmacodyn., 1965, 158, 212-221). A minimum of 12 animals were always used per point.
a. MDTP is administered orally at variable times before activity is measured.
b. When administered orally 30 minutes before the actograph is taken, MDTP increases the motor activity of mice.
c. When administered orally immediately before the actograph is taken, MDTP (128 mg/kg) brings a marked increase in the motor activity of mice up to the 150th minute (Table I).

mouse [2] = assay: Hot-plate test on the mouse; format: in vivo, mouse (male, Swiss NMRI stock)
Description: as §1
This test was applied to measure the time taken or animals to react to a painful stimulus. 12 animals were used per point. 15 Minutes after oral administration of MDTP (64 mg/kg) the time taken for mice exposed to the hot-plate to react (by licking their rear paws) was 5.9 seconds, whereas the time taken by the control group was 9.5 seconds (difference significant at the threshold of 0.01).
On the other hand, the effects on this test of an analgesic dose of morphine was not changed -- either by increasing or reducing them -- by MDTP at the same dose.

animals = assay: Test with the board containing holes; format: in vivo
Description: The method and apparatus described by BOISSIER and SIMON (Physiol. Behav. 1967, 2, 444-448) were used. During these experiments 15 animals were used per batch (except that 30 were used for the control group and 30 for the dose of 64 mg/kg).

mouse [3] = assay: Determination of acute toxicity in the mouse; format: in vivo
Description: as §1
(§2) All the experiments took place in a laboratory with a constant temperature (22° ± 1° C).
(§3) All the experiments were carried out blind (without the experimenter knowing, at the time of the tests, which animals had received the substance presumed active).
(§4) Unless otherwise stated, 10 animals were always used per point.

[4] = Determination of acute toxicity in the mouse; format: in vivo; settings: in vivo, Behrens and Karber
Description: as §1, §2, §3, §4

[5] = Acute toxicity in the rat; format: in vivo; settings: in vivo
Description: as §1, §2, §3, §4
In the rat, with either oral or intraperitoneal administration, the LD50 of 6-methyl 3,4-diphenyl-3,4,5,6-tetrahydro 2-pyrone was over 300 mg/kg.

rat [6] = assay: Amphetamine stereotypy test; format: in vivo, rat (male, Wistar Af stock); settings: rat, 32, 64 or 128 mg/kg oral 60 min before amphetamine 2 mg/kg i.p.
Description: as §1

rat [7] = assay: Apomorphine stereotypy test; format: in vivo, rat (male, Wistar Af stock); settings: rat, 32, 64 or 128 mg/kg oral 60 min before apomorphine 0.5 mg/kg s.c.
Description: as §1

mice = assay: Test for antireserpine action, mice; format: in vivo, mouse (male, Swiss NMRI stock); settings: mice, 8, 16, 32 and 64 mg/kg oral; reserpine 2.5 mg/kg i.p. 4 hours before
Description: as §1

rat [8] = assay: Motor activity in the rat (actimeters with photoelectric cells); format: in vivo, rat (male, Wistar Af stock)
Description: as §1
Motor activity was determined with the aid of actimeters with photoelectric cells described by Tedeschi and Coll (J. Pharm. sci. 1964, 53, 1046-1049). A minimum of 10 animals were always used per point. They show a large increase in the motor activity of rats, which becomes significant from a dose of 32 mg/kg given orally.

rat [9] = assay: Avoidance conditioning in the rat (shuttle-box); format: in vivo, rat (male, Wistar Af stock); settings: 64 mg/kg oral, 8 animals
Description: as §1
The avoidance conditioning was studied in the rat placed in a shuttle-box (with 2 compartments) (of. BOISSIER and SIMON: Therapie 1968, 23, 1267-1276).

mouse [10] = assay: Observation of the animals, mouse; format: in vivo, mouse (male, Swiss NMRI stock)
Description: as §1, §2, §3, §4

mouse [11] = assay: Conditioned inhibition, 4 plate test, mouse; format: in vivo, mouse (male, Swiss NMRI stock)
Description: as §1
A simple conditioned inhibition test was used, the 4 plate test (ARON an Coll, Neuropharmacology 1971, 10, 459-470).

[12] = system: convulsion-inducing attacks; assay: Interaction with convulsion-inducing dose of cardiazol; format: in vivo; settings: 64 mg/kg oral 30 min before cardiazol 160 mg/kg s.c.
mouse [13] = assay: Effects of barbiturate hypnotics, mouse; format: in vivo, mouse (male, Swiss NMRI stock); settings: mouse, 16, 32 or 64 mg/kg oral, with pentabarbitone or barbitone sodium
Description: as §1

[14] = 16 mg/kg orally 60 min before test
[15] = 32 mg/kg orally 60 min before test
[16] = 64 mg/kg orally 60 min before test
[17] = 128 mg/kg orally 60 min before test
[18] = 16 mg/kg orally 15 min before test
[19] = 32 mg/kg orally 15 min before test
[20] = 64 mg/kg orally 15 min before test
[21] = 128 mg/kg orally 15 min before test

CC1CC(c2ccccc2)C(c2ccccc2)C(=O)O1 (stereo not shown) [MDTP, 6-methyl-3,4-diphenyl-3,4,5,6-tetrahydro-2-pyrone]
motor activity relative to the control group (mouse [1]; 15 min pretreatment): 221% | motor activity relative to the control group (mouse [1]; 30 min pretreatment): 192% | motor activity relative to the control group (mouse [1]; 60 min pretreatment): 161% | motor activity relative to the control group (mouse [1]; 120 min pretreatment): 136% | Number of bars passed over by mice, 150 to 180 min (mouse [1]; 128 mg/kg orally, control group 8): 25 | Number of bars passed over by mice, 60 to 90 min (mouse [1]; 128 mg/kg orally, control group 12): 244 | Number of bars passed over by mice, 120 to 150 min (mouse [1]; 128 mg/kg orally, control group 14): 66 | Number of bars passed over by mice, 90 to 120 min (mouse [1]; 128 mg/kg orally, control group 15): 99 | Number of bars passed over by mice, 30 to 60 min (mouse [1]; 128 mg/kg orally, control group 82): 428 | Number of bars passed over by mice, 0 to 30 min (mouse [1]; 128 mg/kg orally, control group 390): 846 | minimal effective dose (mouse [1]; 0.5 h, mouse, oral, 30 min before actograph, read-out: dose from which increase in motor activity becomes significant): 32 mg/kg | dose dependence of increase in motor activity (mouse [1]; mouse, oral, 30 min before actograph): proportional to the dose administered | time taken to react (licking rear paws) on hot-plate (mouse [2]; 64 mg/kg oral, 15 min after, control 9.5 seconds, significant at 0.01): 5.9 s | change in effects of an analgesic dose of morphine on hot-plate test (mouse [2]; MDTP at the same dose): not changed | displacements made in 5 min (animals; [14]): 98 % of control group | holes explored in 5 min (animals; [14]): 120 % of control group | displacements made in 5 min (animals; [15]): 115 % of control group | holes explored in 5 min (animals; [15]): 131 % of control group | displacements made in 5 min (animals; [16]): 161 % of control group | holes explored in 5 min (animals; [16]): 140 % of control group | displacements made in 5 min (animals; [17]): 159 % of control group | holes explored in 5 min (animals; [17]): 141 % of control group | minimal effective dose (animals; oral, read-out: dose from which increase in number of holes explored becomes significant): 32 mg/kg | ratio LD50/ED 50 (mouse [3]): approximately 20/1 | LD50 ([4]; ip, intraperitoneal): 150 mg/kg | LD50 ([4]; oral): 625 mg/kg | LD50 ([5]; ip, intraperitoneal): > 300 mg/kg | LD50 ([5]; oral): > 300 mg/kg | change in amphetamine-induced stereotyped movements (rat [6]): did not bring about any change in the stereotyped movements | change in apomorphine-induced stereotyped movements (rat [7]): did not bring about any change in the sterotyped movements | change in reserpine-induced hypothermia or palpebral ptosis (mice): did not produce any change in the hypothermia or palpebral ptosis | Number of bars passed over after 5 min (rat [8]; [18]): 131 % of control group | Number of bars passed over after 10 min (rat [8]; [18]): 135 % of control group | Number of bars passed over after 15 min (rat [8]; [18]): 148 % of control group | Number of bars passed over after 20 min (rat [8]; [18]): 145 % of control group | Number of bars passed over after 25 min (rat [8]; [18]): 144 % of control group | Number of bars passed over after 30 min (rat [8]; [18]): 133 % of control group | Number of bars passed over after 5 min (rat [8]; [19]): 186 % of control group | Number of bars passed over after 10 min (rat [8]; [19]): 184 % of control group | Number of bars passed over after 15 min (rat [8]; [19]): 135 % of control group | Number of bars passed over after 20 min (rat [8]; [19]): 138 % of control group | Number of bars passed over after 25 min (rat [8]; [19]): 155 % of control group | Number of bars passed over after 30 min (rat [8]; [19]): 161 % of control group | Number of bars passed over after 5 min (rat [8]; [20]): 155 % of control group | Number of bars passed over after 10 min (rat [8]; [20]): 181 % of control group | Number of bars passed over after 15 min (rat [8]; [20]): 178 % of control group | Number of bars passed over after 20 min (rat [8]; [20]): 200 % of control group | Number of bars passed over after 25 min (rat [8]; [20]): 186 % of control group | Number of bars passed over after 30 min (rat [8]; [20]): 195 % of control group | Number of bars passed over after 5 min (rat [8]; [21]): 210 % of control group | Number of bars passed over after 10 min (rat [8]; [21]): 215 % of control group | Number of bars passed over after 15 min (rat [8]; [21]): 209 % of control group | Number of bars passed over after 20 min (rat [8]; [21]): 217 % of control group | Number of bars passed over after 25 min (rat [8]; [21]): 215 % of control group | Number of bars passed over after 30 min (rat [8]; [21]): 201 % of control group | minimal effective dose (rat [8]; oral, read-out: dose from which increase in motor activity becomes significant): 32 mg/kg | change in avoidance conditioning (rat [9]): did not produce any change in conditioning | diameter of the pupils, rectal temperature (mouse [10]; doses below toxic level): no change in diameter of the pupils or the rectal temperature | motor incoordination, abnormal or stereotyped movements (mouse [10]; doses below toxic level): not accompanied by motor incoordination or by abnormal or stereotyped movements | hyperthermia (mouse [10]; doses very close to lethal level): moderate hyperthermia | toxic signs (mouse [10]; in vivo): tremors, hyperreactivity to very intense stimuli, interaggressiveness and convulsive phenomena with the rear paws stretched | excitation on observation (mouse [10]; oral or intraperitoneal, from 16 mg/kg, below toxic level): slight excitation is observed with increased reaction to touching or to sound stimuli | minimal effective dose (mouse [10]; oral or intraperitoneal, read-out: dose from which slight excitation is observed): 16 mg/kg | change in conditioned inhibition (mouse [11]; mouse, 4, 8, 16, 32, 64 and 128 mg/kg): no change was observed in conditioned inhibition | performance of the animals in 4 plate test (mouse [11]; mouse, 4 to 128 mg/kg): a slight increase in the performance of the animals | latency of convulsion-inducing attacks [12]: did not reduce the latency of the convulsion-inducing attacks | change in time to fall asleep and sleeping period (mouse [13]): did not produce any change in the time taken to fall asleep or in the sleeping period
